# Values joined by “and” are separate entries in the source; they are usually repeats but may differ in a detail not shown here. Equal entries are not always repeated. Toxic doses and inconclusive results are not listed.
# Test system: L1210 leukemia ip in BDF1 mice, survival T/C
# Assay: NCI In Vivo Anticancer Drug Screen. Data for tumor model L1210 Leukemia (intraperitoneal) in B6D2F1 (BDF1) mice
# Conditions: higher = longer survival
# Method in brief: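 In this screen, tumor-bearing mice given compound are compared to those given vehicle, and their survival values are reported as a treated-to-control quotient.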
smiles,measurement,setting,value
O=c1[nH]c(=O)n([C@H]2CCCO2)cc1F,T/C,"endpoint: mean survival time, dose: 600.0 mg/kg/injection, schedule: Q04DX003 (ip), vehicle: other",116 % of control
same,T/C,"endpoint: mean survival time, dose: 600.0 mg/kg/injection, schedule: Q04DX003 (ip), vehicle: saline with Tween-80",124 % of control
same,T/C,"endpoint: mean survival time, dose: 640.0 mg/kg/injection, schedule: Q01DX009 (ip), vehicle: saline",104 % of control
same,T/C,"endpoint: mean survival time, dose: 700.0 mg/kg/injection, schedule: Q01DX001 (ip), vehicle: other",111 % of control
same,T/C,"endpoint: mean survival time, dose: 700.0 mg/kg/injection, schedule: Q01DX001 (sc), vehicle: other",111 % of control
same,T/C,"endpoint: mean survival time, dose: 781.0 mg/kg/injection, schedule: Q04DX002 (sc), vehicle: clinical formulation",100 % of control
same,T/C,"endpoint: mean survival time, dose: 977.0 mg/kg/injection, schedule: Q01DX001 (sc), vehicle: clinical formulation",107 % of control
same,T/C,"endpoint: mean survival time, dose: 1000.0 mg/kg/injection, schedule: Q01DX001 (ip), vehicle: other",96 % of control
same,T/C,"endpoint: mean survival time, dose: 1200.0 mg/kg/injection, schedule: Q04DX003 (ip), vehicle: other",93 % of control
same,T/C,"endpoint: mean survival time, dose: 1300.0 mg/kg/injection, schedule: Q01DX001 (ip), vehicle: Klucel (hydroxypropylcellulose) (HPC)",150 % of control
same,T/C,"endpoint: mean survival time, dose: 1428.0 mg/kg/injection, schedule: Q01DX001 (ip), vehicle: other",102 % of control
same,T/C,"endpoint: mean survival time, dose: 1428.0 mg/kg/injection, schedule: Q01DX001 (sc), vehicle: other",101 % of control
same,T/C,"endpoint: mean survival time, dose: 2300.0 mg/kg/injection, schedule: Q01DX001 (ip), vehicle: Klucel (hydroxypropylcellulose) (HPC)",115 % of control
same,T/C,"endpoint: median survival time, dose: 5.0 mg/kg/injection, schedule: Q03HX008 (ip), vehicle: other",95 % of control
same,T/C,"endpoint: median survival time, dose: 5.0 mg/kg/injection, schedule: Q03HX024 (ip), vehicle: other",95 % of control
same,T/C,"endpoint: median survival time, dose: 9.0 mg/kg/injection, schedule: Q03HX008 (ip), vehicle: other",96 % of control
same,T/C,"endpoint: median survival time, dose: 9.0 mg/kg/injection, schedule: Q03HX024 (ip), vehicle: other",102 % of control
same,T/C,"endpoint: median survival time, dose: 14.0 mg/kg/injection, schedule: Q01DX009 (ip), vehicle: other",100 % of control
same,T/C,"endpoint: median survival time, dose: 14.0 mg/kg/injection, schedule: Q03HX008 (ip), vehicle: other",94 % of control
same,T/C,"endpoint: median survival time, dose: 14.0 mg/kg/injection, schedule: Q03HX024 (ip), vehicle: other",96 % of control
same,T/C,"endpoint: median survival time, dose: 23.0 mg/kg/injection, schedule: Q01DX009 (ip), vehicle: other",103 % of control
same,T/C,"endpoint: median survival time, dose: 23.0 mg/kg/injection, schedule: Q03HX008 (ip), vehicle: other",93 % of control
same,T/C,"endpoint: median survival time, dose: 23.0 mg/kg/injection, schedule: Q03HX024 (ip), vehicle: other",103 % of control
same,T/C,"endpoint: median survival time, dose: 39.0 mg/kg/injection, schedule: Q04DX003 (ip), vehicle: other",111 % of control
same,T/C,"endpoint: median survival time, dose: 39.0 mg/kg/injection, schedule: Q04DX003 (oral), vehicle: other",100 % of control
same,T/C,"endpoint: median survival time, dose: 39.0 mg/kg/injection, schedule: Q04DX003 (sc), vehicle: other",106 % of control
same,T/C,"endpoint: median survival time, dose: 65.0 mg/kg/injection, schedule: Q01DX001 (ip), vehicle: other",100 % of control
same,T/C,"endpoint: median survival time, dose: 65.0 mg/kg/injection, schedule: Q01DX009 (ip), vehicle: other",104 % of control
same,T/C,"endpoint: median survival time, dose: 65.0 mg/kg/injection, schedule: Q04DX003 (ip), vehicle: other",95 % of control
same,T/C,"endpoint: median survival time, dose: 65.0 mg/kg/injection, schedule: Q04DX003 (oral), vehicle: other",103 % of control
same,T/C,"endpoint: median survival time, dose: 65.0 mg/kg/injection, schedule: Q04DX003 (sc), vehicle: other",101 % of control
same,T/C,"endpoint: median survival time, dose: 75.0 mg/kg/injection, schedule: Q04DX003 (ip), vehicle: water",95 % of control
same,T/C,"endpoint: median survival time, dose: 108.0 mg/kg/injection, schedule: Q01DX001 (ip), vehicle: other",122 % of control
same,T/C,"endpoint: median survival time, dose: 108.0 mg/kg/injection, schedule: Q04DX003 (ip), vehicle: other",100 % of control and 106 % of control
same,T/C,"endpoint: median survival time, dose: 108.0 mg/kg/injection, schedule: Q04DX003 (oral), vehicle: other",118 % of control
same,T/C,"endpoint: median survival time, dose: 108.0 mg/kg/injection, schedule: Q04DX003 (sc), vehicle: other",113 % of control
same,T/C,"endpoint: median survival time, dose: 150.0 mg/kg/injection, schedule: Q04DX003 (ip), vehicle: water",101 % of control
same,T/C,"endpoint: median survival time, dose: 180.0 mg/kg/injection, schedule: Q01DX001 (ip), vehicle: other",106 % of control
same,T/C,"endpoint: median survival time, dose: 180.0 mg/kg/injection, schedule: Q04DX003 (ip), vehicle: other",105 % of control and 112 % of control
same,T/C,"endpoint: median survival time, dose: 180.0 mg/kg/injection, schedule: Q04DX003 (sc), vehicle: other",108 % of control
same,T/C,"endpoint: median survival time, dose: 300.0 mg/kg/injection, schedule: Q04DX003 (oral), vehicle: other",118 % of control
same,T/C,"endpoint: median survival time, dose: 500.0 mg/kg/injection, schedule: Q04DX003 (oral), vehicle: other",164 % of control
same,T/C,"endpoint: median survival time, dose: 833.0 mg/kg/injection, schedule: Q04DX003 (ip), vehicle: other",118 % of control
same,T/C,"endpoint: median survival time, dose: 833.0 mg/kg/injection, schedule: Q04DX003 (sc), vehicle: other",160 % of control
same,T/C,"endpoint: median survival time, dose: 1200.0 mg/kg/injection, schedule: Q04DX003 (ip), vehicle: water",110 % of control
same,T/C,"endpoint: median survival time, dose: 1300.0 mg/kg/injection, schedule: Q01DX001 (ip), vehicle: other",104 % of control
